Reference: PubChem BioAssay (NCI)
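Assay format: 96-well plates, 48-hour exposure. TGI marks complete inhibition of growth.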 *1 amine or outer side, *2 acyl side, *3 side chain or, on linkers, in order; H or OH if unused. Where a SMILES comes first, the peptide text is derived from it. [ ]: non-standard residue; d: D form. The star is where a group is joined. X31 = CC(=O)N(C)SCC(N[*:1])C(=O)[*:2]; Cbz = O=C(OCc1ccccc1)*; Bn = c1ccc(C*)cc1

How the values were obtained:
Test in all cases: growth of human tumour cells (NCI), 48 h
SK-MEL-5 melanoma = tested on: SK-MEL-5 melanoma
HCT-116 colon = tested on: HCT-116 colon
NCI/ADR-RES ovarian = tested on: NCI/ADR-RES ovarian
BT-549 breast = tested on: BT-549 breast
MCF7 breast = tested on: MCF7 breast
RPMI-8226 leukemia = tested on: RPMI-8226 leukemia
CAKI-1 renal = tested on: CAKI-1 renal
SK-MEL-2 melanoma = tested on: SK-MEL-2 melanoma
CCRF-CEM leukemia = tested on: CCRF-CEM leukemia
HT29 colon = tested on: HT29 colon

## O=c1c2cc(Cl)cc(Cl)c2oc2nc3n(c(=O)c12)CCCS3
SK-MEL-5 melanoma
  TGI: > 100 µM
HCT-116 colon
  TGI: > 100 µM
NCI/ADR-RES ovarian
  TGI: > 100 µM
BT-549 breast
  TGI: > 100 µM
MCF7 breast
  TGI: > 100 µM
RPMI-8226 leukemia
  TGI: > 100 µM
CAKI-1 renal
  TGI: > 100 µM
SK-MEL-2 melanoma
  TGI: > 100 µM
CCRF-CEM leukemia
  TGI: > 100 µM

## Fc1ccc(-c2sc(-c3cccs3)cc2Cc2cccs2)cc1
SK-MEL-5 melanoma
  TGI: > 100 µM
HCT-116 colon
  TGI: > 100 µM
NCI/ADR-RES ovarian
  TGI: > 100 µM
BT-549 breast
  TGI: > 100 µM
MCF7 breast
  TGI: > 100 µM
CAKI-1 renal
  TGI: > 100 µM
SK-MEL-2 melanoma
  TGI: > 100 µM
HT29 colon
  TGI: > 100 µM
CCRF-CEM leukemia
  TGI: > 100 µM

## Nc1cc(=O)n(-c2ccccc2)c(=S)n1-c1ccccc1
SK-MEL-5 melanoma
  TGI: > 100 µM
HCT-116 colon
  TGI: > 100 µM
RPMI-8226 leukemia
  TGI: > 100 µM
CAKI-1 renal
  TGI: > 100 µM
SK-MEL-2 melanoma
  TGI: > 100 µM
HT29 colon
  TGI: > 100 µM
CCRF-CEM leukemia
  TGI: > 100 µM

## COc1ccc(C2C3CCc4ccccc4C3=NN2S(=O)(=O)c2ccc(/C=C/C(=O)O)cc2)cc1 (stereo unspecified)
SK-MEL-5 melanoma
  TGI: 18.6 µM
HCT-116 colon
  TGI: 38.2 µM
BT-549 breast
  TGI: > 100 µM
MCF7 breast
  TGI: 6.55 µM
RPMI-8226 leukemia
  TGI: 16 µM
CAKI-1 renal
  TGI: > 100 µM
SK-MEL-2 melanoma
  TGI: 9.79 µM
HT29 colon
  TGI: 13.6 µM
CCRF-CEM leukemia
  TGI: 22.9 µM

## O=C(Nc1cccc2c1[nH]c1c(-c3ccccc3)nccc12)c1ccccc1[N+](=O)[O-]
HCT-116 colon
  TGI: > 100 µM
RPMI-8226 leukemia
  TGI: > 100 µM
CAKI-1 renal
  TGI: 70.4 µM
SK-MEL-2 melanoma
  TGI: > 100 µM
HT29 colon
  TGI: > 100 µM
CCRF-CEM leukemia
  TGI: > 100 µM

## COC1(O)c2cccc(Cl)c2C(=O)N1C1(C(N)=O)CCCCC1 (stereo unspecified)
SK-MEL-5 melanoma
  TGI: > 100 µM
HCT-116 colon
  TGI: > 100 µM
NCI/ADR-RES ovarian
  TGI: > 100 µM
MCF7 breast
  TGI: > 100 µM
RPMI-8226 leukemia
  TGI: > 100 µM
CAKI-1 renal
  TGI: > 100 µM
SK-MEL-2 melanoma
  TGI: > 100 µM
HT29 colon
  TGI: > 58 µM
CCRF-CEM leukemia
  TGI: > 100 µM

## CSc1ncc2c(n1)sc1c(=O)n(-c3ccccc3)cnc12
SK-MEL-5 melanoma
  TGI: > 100 µM
HCT-116 colon
  TGI: > 100 µM
NCI/ADR-RES ovarian
  TGI: > 100 µM
BT-549 breast
  TGI: > 100 µM
RPMI-8226 leukemia
  TGI: > 100 µM
CAKI-1 renal
  TGI: > 100 µM
SK-MEL-2 melanoma
  TGI: > 100 µM
HT29 colon
  TGI: > 100 µM
CCRF-CEM leukemia
  TGI: > 100 µM

## COc1ccc(C(=O)/C=C/c2ccc(OCCSCCCCCCCCCCSCCOc3ccc(/C=C/C(=O)c4ccc(OC)c(OC)c4)cc3)cc2)cc1OC
SK-MEL-5 melanoma
  TGI: > 100 µM
HCT-116 colon
  TGI: > 100 µM
BT-549 breast
  TGI: > 100 µM
MCF7 breast
  TGI: > 100 µM
RPMI-8226 leukemia
  TGI: > 100 µM
CAKI-1 renal
  TGI: > 100 µM
HT29 colon
  TGI: > 100 µM
CCRF-CEM leukemia
  TGI: > 100 µM

## CC1C(OC2O[C@@H]3O[C@@]4(C)CC[C@H]5[C@H](C)CC[C@@H](C2C)[C@@]35O4)O[C@@H]2O[C@@]3(C)CC[C@H]4[C@H](C)CC[C@@H]1[C@@]24O3 (stereo partly specified)
SK-MEL-5 melanoma
  TGI: > 50 µM
HCT-116 colon
  TGI: > 50 µM
BT-549 breast
  TGI: > 50 µM
MCF7 breast
  TGI: > 50 µM
RPMI-8226 leukemia
  TGI: > 50 µM
CAKI-1 renal
  TGI: > 50 µM
SK-MEL-2 melanoma
  TGI: > 50 µM
HT29 colon
  TGI: > 50 µM
CCRF-CEM leukemia
  TGI: > 50 µM

## COc1cc2c(cc1OCCCCOc1cc3c(cc1OC)C(=O)N1CCC[C@H]1C(=O)N3)N=C[C@@H]1CCCN1C2=O
SK-MEL-5 melanoma
  TGI: 14.8 µM
HCT-116 colon
  TGI: > 100 µM
NCI/ADR-RES ovarian
  TGI: 29 µM
BT-549 breast
  TGI: 16.8 µM
MCF7 breast
  TGI: 18.1 µM
RPMI-8226 leukemia
  TGI: 3.66 µM
CAKI-1 renal
  TGI: 25.5 µM
SK-MEL-2 melanoma
  TGI: 20.1 µM
HT29 colon
  TGI: 43.2 µM

## Clc1ccc(-c2c(C3=NCCCN3)nnn2-c2ccccc2)cc1
SK-MEL-5 melanoma
  TGI: > 100 µM
HCT-116 colon
  TGI: > 100 µM
CAKI-1 renal
  TGI: > 100 µM
SK-MEL-2 melanoma
  TGI: > 100 µM
HT29 colon
  TGI: > 100 µM
CCRF-CEM leukemia
  TGI: > 100 µM

## COC(=O)C1(C(=O)OC)N=C(C)OC1/C=C/c1ccccc1 (stereo unspecified)
SK-MEL-5 melanoma
  TGI: > 100 µM
HCT-116 colon
  TGI: > 100 µM
NCI/ADR-RES ovarian
  TGI: > 100 µM
BT-549 breast
  TGI: > 100 µM
MCF7 breast
  TGI: > 100 µM
RPMI-8226 leukemia
  TGI: > 100 µM
CAKI-1 renal
  TGI: > 100 µM
SK-MEL-2 melanoma
  TGI: > 100 µM
CCRF-CEM leukemia
  TGI: > 100 µM

## CC1CCC2(CC1)NC1=C(CC(C)CC1)C1=C2CC(C)CC1 (stereo unspecified)
SK-MEL-5 melanoma
  TGI: 24.4 µM
HCT-116 colon
  TGI: 28 µM
BT-549 breast
  TGI: 38.4 µM
MCF7 breast
  TGI: 34.5 µM
RPMI-8226 leukemia
  TGI: 55.6 µM
CAKI-1 renal
  TGI: 54.5 µM
SK-MEL-2 melanoma
  TGI: 57.8 µM
HT29 colon
  TGI: 46.5 µM
CCRF-CEM leukemia
  TGI: 43.6 µM

## O=C(O)C12CCCCC1CCCC2 (stereo unspecified)
SK-MEL-5 melanoma
  TGI: > 100 µM
HCT-116 colon
  TGI: > 100 µM
RPMI-8226 leukemia
  TGI: > 100 µM
CAKI-1 renal
  TGI: > 100 µM
HT29 colon
  TGI: > 100 µM
CCRF-CEM leukemia
  TGI: > 100 µM

## Ic1cc2c(cc1C1SCCCS1)OCO2
SK-MEL-5 melanoma
  TGI: > 100 µM
HCT-116 colon
  TGI: > 100 µM
RPMI-8226 leukemia
  TGI: > 100 µM
CAKI-1 renal
  TGI: > 100 µM
SK-MEL-2 melanoma
  TGI: > 100 µM
HT29 colon
  TGI: > 100 µM
CCRF-CEM leukemia
  TGI: > 100 µM

## COc1cccc(N(CN2C(=O)CCC2C(=O)O)C(C)=O)c1 (stereo unspecified)
SK-MEL-5 melanoma
  TGI: > 100 µM
HCT-116 colon
  TGI: > 100 µM
NCI/ADR-RES ovarian
  TGI: > 100 µM
MCF7 breast
  TGI: > 100 µM
RPMI-8226 leukemia
  TGI: > 100 µM
CAKI-1 renal
  TGI: > 100 µM
SK-MEL-2 melanoma
  TGI: > 100 µM
HT29 colon
  TGI: > 100 µM

## Cc1cc(S(=O)(=O)/N=C(/[N-]S(=O)(=O)c2ccc(Cl)cc2)[n+]2ccc(N(C)C)cc2)c(SCC(=O)O)cc1Cl
HCT-116 colon
  TGI: > 100 µM
BT-549 breast
  TGI: > 100 µM
MCF7 breast
  TGI: > 100 µM
RPMI-8226 leukemia
  TGI: > 100 µM
CAKI-1 renal
  TGI: > 100 µM
HT29 colon
  TGI: > 100 µM
CCRF-CEM leukemia
  TGI: > 100 µM

## CN1CN(c2ccccc2)C2(CCN(CCC3COc4ccccc4O3)CC2)C1=O (stereo unspecified)
SK-MEL-5 melanoma
  TGI: 28.2 µM
HCT-116 colon
  TGI: 23.2 µM
NCI/ADR-RES ovarian
  TGI: 49.6 µM
BT-549 breast
  TGI: 42.5 µM
MCF7 breast
  TGI: 72.4 µM
RPMI-8226 leukemia
  TGI: 42.7 µM
CAKI-1 renal
  TGI: 77.5 µM
HT29 colon
  TGI: 19.6 µM
CCRF-CEM leukemia
  TGI: 77.4 µM

## CC(=O)N(C)SCC(NC(=O)C(Cc1ccccc1)NC(=O)OCc1ccccc1)C(=O)NC(Cc1ccccc1)C(=O)NC(Cc1c[nH]c2ccccc12)C(=O)NC(CCCCNC(=O)OCc1ccccc1)C(=O)NC(C(=O)NC(CSN(C)C(C)=O)C(=O)NC(C(N)=O)C(C)OCc1ccccc1)C(C)OCc1ccccc1 (stereo unspecified) (Cbz-F[X31]FWK(Cbz)T(Bn)[X31]T(Bn)-NH2; configuration not given here)
SK-MEL-5 melanoma
  TGI: > 100 µM
HCT-116 colon
  TGI: > 100 µM
NCI/ADR-RES ovarian
  TGI: > 100 µM
BT-549 breast
  TGI: > 100 µM
MCF7 breast
  TGI: > 100 µM
RPMI-8226 leukemia
  TGI: > 100 µM
SK-MEL-2 melanoma
  TGI: > 100 µM
HT29 colon
  TGI: > 100 µM
CCRF-CEM leukemia
  TGI: > 100 µM

## CCOC(=O)C(NC(=O)c1ccccc1)(Nc1ccc(Cl)cc1C(F)(F)F)C(F)(F)F (stereo unspecified)
SK-MEL-5 melanoma
  TGI: > 37.5 µM
HCT-116 colon
  TGI: > 84.5 µM
NCI/ADR-RES ovarian
  TGI: 10.6 µM
BT-549 breast
  TGI: 32.4 µM
MCF7 breast
  TGI: > 100 µM
RPMI-8226 leukemia
  TGI: > 100 µM
CAKI-1 renal
  TGI: > 55.7 µM
SK-MEL-2 melanoma
  TGI: > 45.1 µM
HT29 colon
  TGI: 6.53 µM

## COC(=O)[C@H](CC(C)C)Nc1c(O)c2c(c(O)c1Cl)C(=O)C=CC2=O
SK-MEL-5 melanoma
  TGI: > 10 µM
HCT-116 colon
  TGI: 5.35 µM
NCI/ADR-RES ovarian
  TGI: > 10 µM
BT-549 breast
  TGI: > 10 µM
RPMI-8226 leukemia
  TGI: > 10 µM
CAKI-1 renal
  TGI: > 10 µM
SK-MEL-2 melanoma
  TGI: > 10 µM
HT29 colon
  TGI: 9.41 µM
CCRF-CEM leukemia
  TGI: > 10 µM

## CC(=O)NC(Cc1ccsc1)C(=O)O (stereo unspecified)
SK-MEL-5 melanoma
  TGI: > 100 µM
HCT-116 colon
  TGI: > 100 µM
NCI/ADR-RES ovarian
  TGI: > 100 µM
MCF7 breast
  TGI: > 100 µM
RPMI-8226 leukemia
  TGI: > 100 µM
CAKI-1 renal
  TGI: > 100 µM
SK-MEL-2 melanoma
  TGI: > 100 µM
HT29 colon
  TGI: > 100 µM
CCRF-CEM leukemia
  TGI: > 100 µM
